The source made the active and inactive calls.
How the values were obtained:
[1] = biological target: T1, Corticotropin-releasing factor receptor 2/Corticotropin-releasing factor-binding protein (Homo sapiens, UniProt P24387+Q13324); experiment: activators of CRF receptor 2 with binding protein – uHTS hits, confirmation (AID 602473); format: functional; conditions: read-out: EC50_Mean
T1 sequence (Q13324 whole entry): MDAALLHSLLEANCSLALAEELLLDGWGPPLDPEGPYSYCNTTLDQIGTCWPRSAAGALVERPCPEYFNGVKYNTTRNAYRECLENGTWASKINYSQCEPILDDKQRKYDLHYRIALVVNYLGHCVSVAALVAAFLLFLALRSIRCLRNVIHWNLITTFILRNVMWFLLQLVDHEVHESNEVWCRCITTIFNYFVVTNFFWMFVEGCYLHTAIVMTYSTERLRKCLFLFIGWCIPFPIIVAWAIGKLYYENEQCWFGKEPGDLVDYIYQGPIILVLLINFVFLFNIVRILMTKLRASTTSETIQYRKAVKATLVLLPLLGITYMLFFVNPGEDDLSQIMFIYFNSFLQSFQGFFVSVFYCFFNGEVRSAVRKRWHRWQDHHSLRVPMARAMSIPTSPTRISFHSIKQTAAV
T1 sequence (P24387 whole entry): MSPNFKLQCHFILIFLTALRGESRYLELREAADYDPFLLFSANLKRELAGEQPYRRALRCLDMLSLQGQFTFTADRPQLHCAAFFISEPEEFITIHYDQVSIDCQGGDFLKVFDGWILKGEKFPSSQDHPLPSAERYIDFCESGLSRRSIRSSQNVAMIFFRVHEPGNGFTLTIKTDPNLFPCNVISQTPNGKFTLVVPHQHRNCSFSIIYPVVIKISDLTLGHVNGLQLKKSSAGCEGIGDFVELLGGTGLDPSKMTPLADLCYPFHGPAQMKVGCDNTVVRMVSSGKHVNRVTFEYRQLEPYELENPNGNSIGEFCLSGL

[2] = biological target: T1, Corticotropin-releasing factor receptor 2/Corticotropin-releasing factor-binding protein; experiment: Dose Response confirmation of uHTS hits for small molecule antagonists of the CRF-binding protein and CRF-R2 receptor complex.; format: functional; conditions: read-out: IC50_Mean
[3] = biological target: T2, Calpain-2 catalytic subunit (Sus scrofa, UniProt P43367); experiment: m-calpain protease blockers, concentration series – biochemical, fluorogenic peptide substrate, dose response (AID 1420); format: functional
T2 sequence (P43367 whole entry): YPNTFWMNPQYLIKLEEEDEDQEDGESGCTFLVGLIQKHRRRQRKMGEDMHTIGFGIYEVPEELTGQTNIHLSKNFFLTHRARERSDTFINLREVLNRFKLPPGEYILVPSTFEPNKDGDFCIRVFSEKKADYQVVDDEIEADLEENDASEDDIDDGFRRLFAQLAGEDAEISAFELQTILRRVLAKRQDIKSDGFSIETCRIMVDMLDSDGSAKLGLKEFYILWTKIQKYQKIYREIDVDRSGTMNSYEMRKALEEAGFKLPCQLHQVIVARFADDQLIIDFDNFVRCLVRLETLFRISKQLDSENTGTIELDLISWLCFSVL

cells [4] = format: functional, cell-based
cells [5] = format: functional, cell-based; remark: listed apart in the source
[6] = viability of uninfected HEp-2 cells – cell-based, HTS, cytotoxicity control for RSV inhibitor project, dose response (AID 2410); format: functional; conditions: human respiratory syncytial virus
[7] = biological target: T3, Ubiquitin-conjugating enzyme E2 N (Homo sapiens, UniProt P61088); format: functional;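 also: Dose-response confirmation in a TR-FRET assay detecting UBC13-driven polyubiquitin chain formation, inhibition measured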
T3 sequence (P61088 whole entry): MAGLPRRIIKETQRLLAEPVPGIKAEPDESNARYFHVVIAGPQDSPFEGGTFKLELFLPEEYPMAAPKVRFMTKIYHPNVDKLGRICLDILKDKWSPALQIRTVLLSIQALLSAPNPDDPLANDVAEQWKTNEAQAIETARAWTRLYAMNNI

Cytochrome P450 2C9 = Cytochrome P450 2C9 (Homo sapiens, UniProt P11712)
Cytochrome P450 2C9, sequence (P11712 whole entry): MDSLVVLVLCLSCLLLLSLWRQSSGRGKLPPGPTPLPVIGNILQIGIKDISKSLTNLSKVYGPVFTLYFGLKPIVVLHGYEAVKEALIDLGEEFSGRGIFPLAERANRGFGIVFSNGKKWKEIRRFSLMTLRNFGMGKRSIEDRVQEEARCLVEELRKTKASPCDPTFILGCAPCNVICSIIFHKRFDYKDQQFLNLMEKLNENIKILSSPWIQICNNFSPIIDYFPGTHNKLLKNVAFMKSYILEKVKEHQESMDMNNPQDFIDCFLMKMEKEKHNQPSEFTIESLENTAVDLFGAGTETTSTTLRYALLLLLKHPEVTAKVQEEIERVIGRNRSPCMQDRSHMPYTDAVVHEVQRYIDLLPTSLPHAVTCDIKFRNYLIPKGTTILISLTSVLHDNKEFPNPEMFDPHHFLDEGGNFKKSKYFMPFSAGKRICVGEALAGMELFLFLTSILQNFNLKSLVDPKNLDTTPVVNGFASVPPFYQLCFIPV

Leucine aminopeptidase = biological target: T4, Leucine aminopeptidase (Plasmodium falciparum 3D7, UniProt Q8IL11); experiment: P. falciparum M17LAP inhibitors, primary screen, biochemical, fluorogenic H-Leu-NHMec substrate, 1536-well (AID 1619); format: functional
T4 sequence (Q8IL11 whole entry): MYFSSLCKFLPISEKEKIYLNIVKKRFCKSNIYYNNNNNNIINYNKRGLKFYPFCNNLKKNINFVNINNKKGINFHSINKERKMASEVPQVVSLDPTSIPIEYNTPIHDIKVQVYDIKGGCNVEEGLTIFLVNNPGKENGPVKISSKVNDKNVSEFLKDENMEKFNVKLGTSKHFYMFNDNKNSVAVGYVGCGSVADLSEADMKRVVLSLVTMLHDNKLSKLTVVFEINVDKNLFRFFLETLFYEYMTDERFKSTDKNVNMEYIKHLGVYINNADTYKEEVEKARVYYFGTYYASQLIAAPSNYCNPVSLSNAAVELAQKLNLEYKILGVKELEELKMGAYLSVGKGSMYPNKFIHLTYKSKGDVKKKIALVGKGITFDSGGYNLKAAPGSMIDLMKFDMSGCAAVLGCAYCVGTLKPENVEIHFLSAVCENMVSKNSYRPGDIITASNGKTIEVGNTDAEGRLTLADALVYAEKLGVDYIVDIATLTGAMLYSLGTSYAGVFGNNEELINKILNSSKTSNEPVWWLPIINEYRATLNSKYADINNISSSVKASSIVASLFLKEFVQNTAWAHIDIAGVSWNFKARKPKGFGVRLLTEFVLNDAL

Cytochrome P450 2D6 = Cytochrome P450 2D6 (Homo sapiens, UniProt P10635);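 also: CYP2D6 member of a cytochrome P450 panel assay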
Cytochrome P450 2D6, sequence (P10635 whole entry): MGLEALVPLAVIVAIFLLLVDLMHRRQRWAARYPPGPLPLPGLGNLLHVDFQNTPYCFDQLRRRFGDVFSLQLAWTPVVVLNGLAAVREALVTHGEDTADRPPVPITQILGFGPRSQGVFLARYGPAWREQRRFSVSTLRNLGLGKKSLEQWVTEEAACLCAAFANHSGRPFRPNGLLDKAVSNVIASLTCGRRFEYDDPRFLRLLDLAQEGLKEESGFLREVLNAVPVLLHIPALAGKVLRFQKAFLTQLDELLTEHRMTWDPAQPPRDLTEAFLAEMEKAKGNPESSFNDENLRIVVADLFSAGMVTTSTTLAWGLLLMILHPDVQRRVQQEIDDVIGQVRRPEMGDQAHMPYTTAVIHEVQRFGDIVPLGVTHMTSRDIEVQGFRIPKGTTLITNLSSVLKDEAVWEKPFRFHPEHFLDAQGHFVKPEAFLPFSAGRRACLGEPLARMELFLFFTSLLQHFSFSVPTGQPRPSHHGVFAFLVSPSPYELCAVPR

BJ [8] = experiment: BJ-TERT fibroblast viability loss – cell-based, RAS-independent, luminescence, dose response (AID 1933); format: functional; conditions: Homo sapiens
Paired box protein Pax-8 = Paired box protein Pax-8 (Homo sapiens, UniProt Q06710); experiment: PAX8 transcriptional activity inhibition in RMG-I – RMG-I cells, luciferase, cherry-pick, dose response (AID 687027); format: functional, cell-based;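 also: luciferase reporter driven by Pax8 target thyroperoxidase promoter measured by SteadyGlo luminescence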
Paired box protein Pax-8, sequence (Q06710 whole entry): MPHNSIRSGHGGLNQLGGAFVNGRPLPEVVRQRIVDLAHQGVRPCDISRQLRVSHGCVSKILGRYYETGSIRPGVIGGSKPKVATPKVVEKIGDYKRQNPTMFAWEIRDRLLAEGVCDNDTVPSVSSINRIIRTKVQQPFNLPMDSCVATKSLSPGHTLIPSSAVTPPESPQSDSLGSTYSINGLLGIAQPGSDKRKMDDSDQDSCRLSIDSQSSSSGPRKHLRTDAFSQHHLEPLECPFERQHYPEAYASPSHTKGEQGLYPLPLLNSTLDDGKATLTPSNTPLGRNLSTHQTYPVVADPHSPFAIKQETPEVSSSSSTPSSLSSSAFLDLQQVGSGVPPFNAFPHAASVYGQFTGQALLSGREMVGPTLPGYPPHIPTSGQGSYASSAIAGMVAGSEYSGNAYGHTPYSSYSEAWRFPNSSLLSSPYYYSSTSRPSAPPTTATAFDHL

BJ [9] = experiment: BJ-TERT-LT-ST fibroblast viability loss – cell-based, RAS-independent, luminescence, dose response (AID 1935); format: functional; conditions: Homo sapiens;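 also: BJ fibroblasts immortalized with TERT plus LT and ST oncogenes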
[10] = DRD fibroblast viability loss – cell-based, non-viral oncogenic, luminescence, dose response (AID 1934); format: functional; conditions: Homo sapiens
BJ [11] = experiment: cells; format: functional, cell-based; conditions: Homo sapiens
Large T antigen = Large T antigen (Simian virus 40, UniProt P03070); format: functional, Betapolyomavirus macacae;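 also: Confirmatory-stage PubChem screen for compounds that inhibit SV40 T antigen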
Large T antigen, sequence (P03070 whole entry): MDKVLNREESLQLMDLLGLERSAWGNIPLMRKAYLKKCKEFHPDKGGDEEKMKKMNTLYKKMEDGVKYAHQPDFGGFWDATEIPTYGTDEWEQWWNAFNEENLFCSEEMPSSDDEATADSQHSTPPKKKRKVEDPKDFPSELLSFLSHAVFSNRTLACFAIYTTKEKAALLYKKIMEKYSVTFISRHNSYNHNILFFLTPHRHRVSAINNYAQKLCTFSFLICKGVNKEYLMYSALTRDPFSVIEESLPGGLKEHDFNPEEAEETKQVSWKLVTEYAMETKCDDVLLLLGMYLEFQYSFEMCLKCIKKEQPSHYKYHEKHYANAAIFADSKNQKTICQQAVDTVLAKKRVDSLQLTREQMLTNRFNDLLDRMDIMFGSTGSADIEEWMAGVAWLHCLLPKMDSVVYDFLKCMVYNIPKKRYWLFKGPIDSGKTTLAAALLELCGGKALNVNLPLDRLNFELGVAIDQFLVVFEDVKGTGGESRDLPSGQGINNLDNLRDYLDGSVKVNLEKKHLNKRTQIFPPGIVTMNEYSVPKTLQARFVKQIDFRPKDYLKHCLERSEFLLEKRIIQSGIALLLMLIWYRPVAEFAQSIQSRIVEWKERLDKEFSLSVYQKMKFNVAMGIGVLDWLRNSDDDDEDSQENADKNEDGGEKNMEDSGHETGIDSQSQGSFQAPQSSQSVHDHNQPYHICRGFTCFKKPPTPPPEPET

[12] = microbe, parasite or virus in culture; format: functional; conditions: Mycobacterium tuberculosis
[13] = IGROV1 cell killing – plate reader, dry powder samples, PAX8 inhibitor project, dose response (AID 743043); format: functional, cell-based; conditions: IGROV-1
[14] = OVCAR-3 cell viability loss – plate reader, dry powder samples, PAX8 inhibitor project, dose response (AID 743044); format: functional, cell-based

CC1CN(C(c2ccco2)c2sc3ncnn3c2O)CC(C)O1 (configuration not stated)
EC50 [1]: > 53 µM (inactive) | IC50 [2]: > 47.1 µM (inactive)

CCOC(=O)C1CCCN(c2c(NCCCN(C)c3ccccc3)c(=O)c2=O)C1 (configuration not stated)
IC50 [3]: > 50 µM (not active)

CCn1cc(C(=O)NCC(OC)OC)c(=O)c2cc(S(=O)(=O)N3CCC(C)CC3)ccc21
EC50 (cells [4]): > 350 µM (not active) | EC50 (cells [5]): > 350 µM (not active) | CC50 [6]: 11.1 µM (active)

CC(C)Cn1cc(C(=O)NC2CCN(Cc3ccccc3)CC2)c2c3ccccc3n(C)c2c1=O
IC50 [7]: > 20 µM (inactive)

Cc1ccnc(NS(=O)(=O)c2cc([N+](=O)[O-])ccc2C)c1
EC50 (cells [4]): > 350 µM (not active) | EC50 (cells [5]): > 350 µM (not active)

CCn1c(O)c(N=NC(S)=NCC2CCCO2)c2ccccc21 (configuration not stated)
IC50 [7]: > 20 µM (inactive)

CCN(CC)S(=O)(=O)c1cc(NS(=O)(=O)c2ccccc2)ccc1C
IC50 [3]: > 50 µM (not active)

O=C(CN1C(=O)c2ccccc2S1(=O)=O)Nc1ccccc1
AC50 (Cytochrome P450 2C9): 12.6 µM (inconclusive) | IC50 (Leucine aminopeptidase): 24.6 µM (active) | AC50 (Cytochrome P450 2D6): 17.8 µM (inconclusive)

O=C(O)c1cccc2c1C(=O)N(Cc1ccccc1)C2
EC50 [1]: > 53 µM (inactive) | IC50 [2]: > 47.1 µM (inactive)

Cc1ccc(-c2noc(CSc3nnc(Cc4ccccc4)n3-c3cccc(C)c3)n2)cc1
IC50 [3]: 5.35 µM (not active)

CCCC[C@@H](CNC)NC[C@H](NCCCCC1CCCCC1)C(C)C
IC50 [7]: > 20 µM (inactive)

Cc1ccc(C(=O)CSc2ccc(-c3ccncc3)nn2)cc1
EC50 (cells [4]): > 350 µM (not active) | EC50 (cells [5]): > 350 µM (not active)

O=C(CCCN1C(=O)/C(=C/c2cccc(Br)c2)SC1=S)Nc1cccnc1
EC50 (BJ [8]): 3.12 µM (active) | AC50 (Paired box protein Pax-8): 8.92 µM (active) | EC50 (BJ [9]): 17.2 µM (active) | EC50 [10]: 9.68 µM (active) | EC50 (BJ [11]): 25.3 µM (active)

CC(=O)Nc1ccc(OC(=O)C(CCS(C)(=O)=O)N2C(=O)c3ccccc3C2=O)cc1 (configuration not stated)
IC50 (Large T antigen): 8.46 µM (active)

Cc1ccc(C)c(OCC(=O)O/N=C(\N)c2cccc([N+](=O)[O-])c2)c1
EC50 (cells [4]): > 350 µM (not active) | EC50 (cells [5]): > 350 µM (not active)

Cc1ccc(C2CC(c3cccs3)=NN2C(=O)c2ccco2)o1 (configuration not stated)
IC50 [3]: > 50 µM (not active)

NC(=O)COc1ncn(-c2ccccc2)n1
EC50 [1]: > 53 µM (inactive) | IC50 [2]: > 47.1 µM (inactive)

CCCOc1ccc(OCCN2CCCC(C)C2)cc1 (configuration not stated)
IC50 [3]: < 0.4 µM (not active)

O=C(COC(=O)C1CCN(S(=O)(=O)c2ccccc2)CC1)NC(=O)c1ccc(OC(F)F)cc1
EC50 [1]: > 53 µM (inactive) | IC50 [2]: > 47.1 µM (inactive)

CCc1ccc(N(C(=O)c2snc(C(N)=O)c2N)C(C(=O)NC2CCCC2)c2ccco2)cc1 (configuration not stated)
IC50 [7]: > 20 µM (inactive)

O=C(CCCN1C(=O)c2ccccc2C1=O)N1CCC(c2ccccc2)C1 (configuration not stated)
IC50 [3]: 25.1 µM (not active)

Cc1cc(NC(=O)CCl)no1
EC50 (BJ [8]): 18 µM (active) | EC50 (BJ [9]): > 75 µM (not active) | EC50 [10]: 21.1 µM (active) | EC50 (BJ [11]): > 150 µM (not active) | CC50 [12]: 19.6 µM (active)

CSc1ncccc1C(=O)N(C)CC(=O)Nc1cccc(F)c1
EC50 [1]: > 53 µM (inactive) | IC50 [2]: > 47.1 µM (inactive)

CC(C)=CCSc1nnc([C@@H](N)Cc2c[nH]c3ccccc23)o1
EC50 (cells [4]): > 350 µM (not active) | EC50 (cells [5]): > 350 µM (not active)

Cc1ccc(S(=O)(=O)N2CC(C)N(C(=O)N3CCOCC3)C2C)cc1 (configuration not stated)
EC50 (cells [4]): > 350 µM (not active) | EC50 (cells [5]): > 350 µM (not active)

O=C(CCN1C(=O)/C(=C/c2cccc(Br)c2)SC1=S)Nc1cccnc1
EC50 (BJ [8]): 7.86 µM (inconclusive) | EC50 (BJ [9]): > 150 µM (not active) | EC50 [10]: 18.7 µM (active) | EC50 (BJ [11]): > 150 µM (not active)

COc1ccc(CN2CCS(=O)(=O)CC2)cc1OC
EC50 [1]: > 53 µM (inactive) | IC50 [2]: > 47.1 µM (inactive)

O=C(OCC(=O)N1CCN(c2ccccc2)CC1)c1ccccn1
EC50 [1]: > 53 µM (inactive) | IC50 [2]: > 47.1 µM (inactive)

CC1=NC(=S)NC(c2cccs2)/C1=C(\O)OCC(C)C (configuration not stated)
IC50 (Large T antigen): 51.4 µM (active)

C[C@H](CO)N1C[C@H](C)[C@H](CN(C)CC2CCCCC2)OCCCC[C@H](C)Oc2ccc(NC(=O)Nc3ccccc3)cc2C1=O
AC50 [13]: 38.2 µM (active) | AC50 [14]: 25 µM (active) | AC50 (Paired box protein Pax-8): 14.2 µM (active)

C[C@H](CO)N1C[C@H](C)[C@H](CN(C)Cc2ccc(Cl)c(Cl)c2)OCCCC[C@H](C)Oc2ccc(NS(=O)(=O)c3ccc(F)cc3)cc2C1=O
AC50 [14]: 48.3 µM (active) | AC50 (Paired box protein Pax-8): 4.85 µM (active)

Cc1ccc2nc(Cl)c(/C=N/Nc3ccc(C(=O)O)cc3)cc2c1
IC50 [3]: 4.02 µM (not active)

Reference: ChEMBL document CHEMBL1201862, “PubChem BioAssay data set” (2004)
